Tests used:
[1] = system: host cell shut-off; experiment: Inhibition of host cell shut-off (statement, test not described); settings: statement only, no data given
[2] = molecular target: T1, HRV2 2A (Human rhinovirus 2, UniProt P04936); experiment: Competition assay of peptide substrates against reference peptide P8-P8' (HPLC analysis of cleavage); type: biochemical; settings: for Spaltbarkeit durch HRV2 2A (result in words): competition assay with P8-P8'
T1 construct: wurden mit einer reifen, rekombinanten HRV2 2A durchgeführt; made in house
T1 sequence (P04936 851-992): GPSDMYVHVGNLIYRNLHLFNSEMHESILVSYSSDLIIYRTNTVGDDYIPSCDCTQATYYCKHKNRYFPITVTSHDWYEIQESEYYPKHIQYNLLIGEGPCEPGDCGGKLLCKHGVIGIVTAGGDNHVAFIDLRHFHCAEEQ
Excerpt: Die Substratspezifitätsstudien, wie auch alle anderen Studien in diesem Beispiel, wurden mit einer reifen, rekombinanten HRV2 2A durchgeführt. Mittels Kompetitionsstudien unter Verwendung eines 16-mer Wildtyp-Peptidsubstrats (P8-P8') als Referenzpeptid wurde der jeweilige (Vmax/Km)rel-Wert für das mutierte Peptidsubstrat ermittelt. Das Peptid P8-P8' ([…]* […] (SEQ ID NO. 23)) entspricht der nativen Spaltstelle von HRV2 2A im Polyprotein ([…] ist der C-terminale Teil von VP1 und […] der N-Terminus von HRV2 2A). Dieses Peptid wird von der rekombinanten HRV2 2A intermolekular korrekt zwischen Ala und Gly prozessiert (Km-Wert: (5,4±0,02) x 10⁻⁴ Mol/l; Sommergruber et al., loc cit). […] Die Kompetitionsreaktion wurde durch Zugabe von 1 µl einer reinen (ca. 95%) HRV2 2A Stammlösung (2mg/ml in Puffer A + 0,05% NaN₃) gestartet. 50 µl Proben wurden jeweils nach 30, 60, 90, 120 und 150 sek bzw. nach 2, 4, 8, 16 und 32 min entnommen, in ein ULTRAFREE-MC Röhrchen (10,000 NMWL; Fa. Millipore) mit jeweils 250 µl 0,5 M HClO₄ transferriert (Reaktionsstop), gemischt und auf Eis gestellt (mindestens 15 min). Anschließend wurde die Lösung 30 min bei 14K, 4°C in einer SIGMA Eppendorfzentrifuge zentrifugiert. Das Filtrat wurde direkt zur HPLC Analyse eingesetzt. Peptidsubstrate und deren Spaltprodukte wurden entweder auf einem Kurzgradienten (5,5 min; 5,4% B/min; Merck Supersphere C18 Säule, 4x50 mm) oder einem Langgradienten (34,5 min; 0,8% B/min; Bakerbond WP C18 Säule, 4,6x250mm) aufgetrennt. Die Messung der UV Absorption wurde bei 210 nm und 280 nm durchgeführt. Die Spaltprodukte wurden mittels Komigration von Referenzpepetiden und/oder durch Proteinsequenzierung (Hunkapiller und Hood (1983) Science 219, 650-659) identifiziert. Der prozentuelle Anteil der Spaltung für jeden Zeitpunkt wurde durch Vergleich der Flächen der C- und N-terminalen Produktpeaks mit dem des verbliebenen ungespaltenen Peptidsubstrats ermittelt. Zusätzlich wurden die Daten graphisch ausgewertet, um etwaige Abweichungen vom klassischen Kurvenverlauf zu erkennen (z.B. sigmoide Kurve, allosterische Effekte etc.). Bei keinem der in Abb. 23 angeführten mutierten Peptidsubstrate konnte solch ein Effekt beobachtet werden. Für jedes Substrat und dessen Spaltprodukte war die Gesamtfläche der Peaks unabhängig vom Maß der Spaltung (< 5%). Für zwei Peptidsubstrate 1 und 2 ergeben sich in einem Kompetitionsassay nach Pallai et al. (Pallai et al. (1989) J. Biol. Chem. 264, 9738-9741) die (Vmax/Km)rel-Werte: (Vmax/Km)1/(Vmax/Km)2 = log(1-F1)/log(1-F2) [formula] wobei F der Anteil des umgesetzten Substrats ist. In allen Kompetitionsstudien waren Substrat- und Produktpeaks entweder auf dem langen oder dem kurzen bzw. auf beiden Gradienten über HPLC-Analyse voneinander trennbar. […]

[3] = molecular target: 2A (Human rhinovirus 2, UniProt P04936); settings: Sommergruber et al. (1992); read-out: IC50 für 2A; cited from earlier work
Sequence of 2A (P04936 851-992): as above

[4] = molecular target: T2, HRV2 2A Proteinase (Human rhinovirus 2, UniProt P04936); experiment: In vitro translation of globin RNA in HeLa cell extract pretreated with 2A proteinase, with inhibitor; type: biochemical; settings: 2A Proteinase preincubated with 0,5 mM Elastatinal, Fig. 16C, Spur 4
T2 construct: allen 142 Aminosäuren der 2A Proteinase von HRV2 und 2 Stoppcodons; N-terminal leader: first 14 aa of T7 gene 10 protein + last 7 aa of HRV2 VP1 (removed by self-cleavage) (N, cleaved yes); made in house; host or cells: E. coli BL21(DE3)LysS, plasmid pET/2A; 30 % ammonium sulfate precipitate
T2 sequence (P04936 851-992): as above
Protocol: Zur Herstellung eines HeLa-Zellextraktes wurde eine 1 l HeLa-Suspensionkultur (z.B. HeLa S3 (03-157, FLOWLABS) oder HeLa Ohio (03-147, FLOWLABS)), (ca. 4 x 10⁵ Zellen/ml) in halb-logarithmischer Phase abzentrifugiert (20 min, 1200 rpm), mit isotonischem Puffer gewaschen, durch mehrmaliges "Douncen" (40- bis 50-mal) aufgebrochen und die Zelltrümmer durch Zentrifugation (3 min, 3000 rpm) entfernt. Der Überstand wurde erneut zentrifugiert (20 min, 10000 rpm), das Pellet verworfen und der neue Überstand nochmals zentrifugiert (20 min, 13000 rpm). Der erhaltene Überstand wurde dann bei 4°C gegen Dialysepuffer (zweimal je 400 ml) dialysiert und nochmals 20 Minuten bei 13000 rpm zentrifugiert (20 min, 13000 rpm). Der Überstand (S 20-Extrakt) wurde portioniert und in flüssigem Stickstoff gelagert. isotonischer Puffer: 10 mM Hepes, pH 7,9, 140 mM KCl, 1,5 mM MgCl₂, 1 mM EDTA, 0,5 mM PMSF. Dialysepuffer: 0,1 M KCl, 20 % Glycerin, 20 mM Hepes, pH 7,9, 0,2 mM EDTA, 0,5 mM DTT, 0,5 mM PMSF.
1 ml Portionen des S 20-Extraktes wurden dann mit Micrococcal Nuclease (Boehringer Mannheim; Nr. 107921) behandelt, um die endogene RNA abzubauen: Zunächst wurde der Extrakt zentrifugiert (15 min, 4°C, 13000 rpm) und das Pellet verworfen. Zum Überstand (1 ml) wurden zugegeben: 1,2 µl 1 M CaCl₂ 1,5 µl 1 M MgOAc 16,0 µl Micrococcal Nuclease (15 U/µl). […]

[5] = molecular target: T2, HRV2 2A Proteinase; experiment: In vitro translation of capped pLink-2C RNA in rabbit reticulocyte lysate pretreated with 2A preparation, with inhibitor; type: biochemical; settings: 2A Präparation treated with 0,5 mM Elastatinal, Figur 8B, Spur 8
Protocol: In vitro Transkription dieser Plasmide nach Linearisierung mit BamHI mittels T7 RNA Polymerase wurde wie beschrieben (Duechler et al. (1989), loc. cit.) durchgeführt. Für die Synthese von RNA mit Cap-Struktur wird dem Transkriptionsansatz ⁷mGpppG und GTP zugesetzt. Zum Beispiel kann der von Duechler et al. (1989, loc. cit.) beschriebene Reaktionsansatz 1 mM 7MeGppG und 250 µm GTP enthalten. Am Ende der Reaktionszeit wurde die DNA durch Zugabe von DNase I (RNAse-frei, Boehringer Mannheim) verdaut, die Proteine durch Phenolextraktion entfernt, und die RNA nach Zugabe von einem Drittel Volumen 8 M Ammoniumacetat mit Ethanol gefällt. Nach nochmaliger Fällung mit Ethanol wurde die RNA anschließend in Wasser aufgenommen und ein Aliquot durch Agarosegelelektrophorese auf Qualität überprüft. Der Laufpuffer enthielt 1% SDS. Für die in vitro Translation wurde jeweils 1 µg dieser RNAs eingesetzt. Die Reaktion enthielt in 20 µl 90 mM KCl, 0.3 mM MgCl₂, 10 mM Kreatinphosphat, 2 µl ³⁵S-Trans-Label (ICN; 10 µCi/µl, 1000 Ci/mmol) und 11,5 µl Kaninchenreticulocytenlysat, das mit Micrococcal Nuclease (Sigma) behandelt worden war. Das Kaninchenreticulocytenlysat wurde nach der Methode von Jackson, R. und Hunt, T. (Meth. Enzymol. (1983) 96, 50 - 74) durch Behandlung mit Micrococcal Nuclease hergestellt. […]

| Compound | Inhibition of host cell shut-off [1] | Competitive inhibition of HRV2 2A [2] | Spaltbarkeit durch HRV2 2A (result in words) [2] | IC50 [3] | Effect on 2A action on translation of Globin RNA [4] | Effect on 2A-induced change of translation pattern [5] |
| --- | --- | --- | --- | --- | --- | --- |
| p220-3: 16-mer Oligopeptid, Position im p220-Molekül 737-752 (SEQ ID NO. 124) (SSKRTAADKDRGEEDA; UniProt Q04637 737-752, looked up, fragment) | in der Lage, den "host cell shut-off" zu inhibieren | wirken als kompetitive Inhibitoren | von HRV2 2A prozessiert werden können |  |  |  |
| CC(C)C[C@H](NC(=O)N[C@H](C(=O)N[C@@H](CCC(N)=O)C(=O)N[C@@H](C)C=O)[C@@H]1CCNC(=N)N1)C(=O)O [Elastatinal] |  |  |  | 50 µM | die 2A-Wirkung auf die Translation wird inhibiert | die Inhibition von 2A verhindert die Änderung der Translationseigenschaften |
| p220-4: 16-mer Oligopeptid, Position im p220-Molekül 476-491 (SEQ ID NO. 125) (SEKGGEELLPPESTPI; UniProt Q04637 476-491, looked up, fragment) | in der Lage, den "host cell shut-off" zu inhibieren | wirken als kompetitive Inhibitoren | von HRV2 2A prozessiert werden können |  |  |  |
